Assay results: patent US9624247B2, “Pyrazolo-pyrrolidin-4-one derivatives as bet inhibitors and their use in the treatment of disease” (NOVARTIS AG, priority 2013, dated 2017)

Columns and labels:
BRD3 (His-Brd3(20-477)) = BRD3 (His-Brd3(20-477)) (Homo sapiens (Human), UniProt Q15059); experiment: TR-FRET in-vitro binding assay for BRD3; conditions: acetyl-histone H4 peptide
[1] = target: CREBBP bromodomain (His-CREBBP(1081-1197)) (Homo sapiens (Human), UniProt Q92793); experiment: AlphaScreen in-vitro binding assay for CREBBP; conditions: AlphaScreen, acetyl-histone H4 peptide; read-out: CREBBP IC50
Sequence of CREBBP bromodomain (His-CREBBP(1081-1197)) (Q92793 1081-1197): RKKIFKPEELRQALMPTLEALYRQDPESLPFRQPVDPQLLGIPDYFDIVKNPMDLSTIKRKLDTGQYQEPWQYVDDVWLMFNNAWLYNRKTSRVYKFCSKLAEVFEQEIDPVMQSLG

MV-4-11 cells = experiment: Cell growth inhibition assay (CellTiter-Glo), MV-4-11; assay type: cell-based, human; conditions: MV-4-11, 4 days; for GI50: Homo sapiens, MV4-11, 96 h, half-maximal growth inhibition; for MV-4-11 TGI: total growth inhibition
Summary of the method: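 Leukemia cells were exposed for 4 days at 37 °C to 3-fold dilution series from 10 μM (0.1% DMSO), then viable cells were quantified by CellTiter-Glo ATP luminescence. Signal was corrected for background and a day-0 plate, with vehicle set at 100% and medium-only at −100%. IC50 and TGI were obtained by four-parameter fit.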

Sequence of BRD3 (His-Brd3(20-477)) (Q15059 20-477): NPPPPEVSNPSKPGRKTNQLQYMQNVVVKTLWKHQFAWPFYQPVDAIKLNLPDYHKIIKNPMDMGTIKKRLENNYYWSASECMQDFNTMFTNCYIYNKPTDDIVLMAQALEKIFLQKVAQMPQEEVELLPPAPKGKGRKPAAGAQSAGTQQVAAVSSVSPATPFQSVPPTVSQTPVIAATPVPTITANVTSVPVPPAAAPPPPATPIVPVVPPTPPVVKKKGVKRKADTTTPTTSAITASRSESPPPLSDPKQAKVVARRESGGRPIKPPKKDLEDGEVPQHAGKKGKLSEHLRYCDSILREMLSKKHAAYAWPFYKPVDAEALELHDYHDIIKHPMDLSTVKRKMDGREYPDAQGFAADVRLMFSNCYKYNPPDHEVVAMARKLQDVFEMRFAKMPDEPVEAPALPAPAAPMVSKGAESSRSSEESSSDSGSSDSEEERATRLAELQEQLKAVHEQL

Cc1cc(N2C(=O)c3c(C4CC4)nn(C)c3C2c2ccc(Cl)cc2)cn2c(C(F)F)nnc12 (racemic) [Example 3, 6-(4-chlorophenyl)-3-cyclopropyl-5-(3-(difluoromethyl)-8-methyl-[1,2,4]triazolo[4,3-a]pyridin-6-yl)-1-methyl-5,6-dihydropyrrolo[3,4-c]pyrazol-4(1H)-one] gave an IC50 (BRD3 (His-Brd3(20-477))) of under 11 nM, an IC50 [1] of over 37000 nM and a GI50 (MV-4-11 cells) of 9.49 nM. The “MV-4-11 TGI” value (MV-4-11 cells) was 23.45 nM.

COCCn1nc(C2CC2)c2c1C(c1ccc(Cl)cc1)N(c1cc(C)c3nnc(C)n3c1)C2=O (racemic) [Example 4, 6-(4-chlorophenyl)-3-cyclopropyl-5-(3,8-dimethyl-[1,2,4]triazolo[4,3-a]pyridin-6-yl)-1-(2-methoxyethyl)-5,6-dihydropyrrolo[3,4-c]pyrazol-4(1H)-one] was tested, and the IC50 (BRD3 (His-Brd3(20-477))) was under 11 nM, the IC50 [1] was 7300 nM and the GI50 (MV-4-11 cells) was 9.36 nM. For the same molecule, the “MV-4-11 TGI” value (MV-4-11 cells) was 20.8 nM.

COc1cc(N2C(=O)c3c(C4CC4)nn(C)c3C2c2ccc(Cl)cc2)cn2c(C)nnc12 (racemic) [Example 5, 6-(4-chlorophenyl)-3-cyclopropyl-5-(8-methoxy-3-methyl-[1,2,4]triazolo[4,3-a]pyridin-6-yl)-1-methyl-5,6-dihydropyrrolo[3,4-c]pyrazol-4(1H)-one] was tested, and the IC50 (BRD3 (His-Brd3(20-477))) was 44 nM, the IC50 [1] was over 37000 nM and the GI50 (MV-4-11 cells) was 64.9 nM. The “MV-4-11 TGI” value (MV-4-11 cells) was 104 nM.

Cc1cc(N2C(=O)c3c(C4CC4)nn(C)c3C2c2ccc(Cl)cc2)cn2c(CF)nnc12 (racemic) [Example 16, 6-(4-chlorophenyl)-3-cyclopropyl-5-(3-(fluoromethyl)-8-methyl-[1,2,4]triazolo[4,3-a]-pyridin-6-yl)-1-methyl-5,6-dihydropyrrolo[3,4-c]pyrazol-4(1H)-one] gave an IC50 (BRD3 (His-Brd3(20-477))) of 13 nM, an IC50 [1] of over 37000 nM and a GI50 (MV-4-11 cells) of 6.07 nM. The “MV-4-11 TGI” value (MV-4-11 cells) was 11.3 nM.

Cc1cc(N2C(=O)c3c(C4CC4)nn(C)c3C2c2ccc(Cl)cc2)cn2c(C)nnc12 (stereo not shown) [Example 1, 6-(4-chlorophenyl)-3-cyclopropyl-5-(3,8-dimethyl-[1,2,4]triazolo[4,3-a]pyridin-6-yl)-1-methyl-5,6-dihydropyrrolo[3,4-c]pyrazol-4(1H)-one] was tested, and the IC50 (BRD3 (His-Brd3(20-477))) was 31 nM, the IC50 [1] was 11400 nM and the GI50 (MV-4-11 cells) was 5.42 nM. For the same molecule, the “MV-4-11 TGI” value (MV-4-11 cells) was 10.7 nM.

Work on Cc1cc(N2C(=O)c3c(C4CC4)nn(C)c3[C@H]2c2ccc(Cl)cc2)cn2c(C)nnc12 [Example 2, (R)-6-(4-chlorophenyl)-3-cyclopropyl-5-(3,8-dimethyl-[1,2,4]triazolo[4,3-a]pyridin-6-yl)-1-methyl-5,6-dihydropyrrolo[3,4-c]pyrazol-4(1H)-one] yielded an IC50 (BRD3 (His-Brd3(20-477))) of 12 nM, an IC50 [1] of 6000 nM and a GI50 (MV-4-11 cells) of 4.31 nM. The “MV-4-11 TGI” value (MV-4-11 cells) was 11.21 nM.

For COc1cc(N2C(=O)c3c(C4CC4)nn(C)c3C2c2ccc(Cl)cc2)cc2c1nnn2C (stereo not shown) [Example 6], the IC50 (BRD3 (His-Brd3(20-477))) was 25 nM, the IC50 [1] was 21600 nM and the GI50 (MV-4-11 cells) was 44.5 nM. The “MV-4-11 TGI” value (MV-4-11 cells) was 90.25 nM.

Cc1cc(N2C(=O)c3c(C4CC4)nn(C)c3[C@H]2c2ccc(Cl)cc2)cn2c(C(F)F)nnc12 [Example 7, (R)-6-(4-chlorophenyl)-3-cyclopropyl-5-(3-(difluoromethyl)-8-methyl-[1,2,4]triazolo-[4,3-a]pyridin-6-yl)-1-methyl-5,6-dihydropyrrolo[3,4-c]pyrazol-4(1H)-one] showed an IC50 (BRD3 (His-Brd3(20-477))) of 12 nM, an IC50 [1] of over 37000 nM and a GI50 (MV-4-11 cells) of 2.45 nM. The “MV-4-11 TGI” value (MV-4-11 cells) was 6.275 nM.

For COCCn1nc(C2CC2)c2c1C(c1ccc(Cl)cc1)N(c1cc(C)c3nnc(CF)n3c1)C2=O (stereo not shown) [Example 18, 6-(4-chlorophenyl)-3-cyclopropyl-5-(3-(fluoromethyl)-8-methyl-[1,2,4]triazolo[4,3-a]-pyridin-6-yl)-1-(2-methoxyethyl)-5,6-dihydropyrrolo[3,4-c]pyrazol-4(1H)-one], the IC50 (BRD3 (His-Brd3(20-477))) was 24 nM, the IC50 [1] was over 37000 nM and the GI50 (MV-4-11 cells) was 6.73 nM. For the same molecule, the “MV-4-11 TGI” value (MV-4-11 cells) was 13.25 nM.

Molecule Cc1nnc2c(NC(=O)OC(C)(C)C)cc(N3C(=O)c4c(C5CC5)nn(C)c4C3c3ccc(Cl)cc3)cn12 (stereo not shown) [Example 27, tert-butyl (6-(6-(4-chlorophenyl)-3-cyclopropyl-1-methyl-4-oxopyrrolo[3,4-c]pyrazol-5(1H,4H,6H)-yl)-3-methyl-[1,2,4]triazolo[4,3-a]pyridin-8-yl)carbamate] has an IC50 (BRD3 (His-Brd3(20-477))) of 65 nM, an IC50 [1] of 8100 nM and a GI50 (MV-4-11 cells) of 11.1 nM. The “MV-4-11 TGI” value (MV-4-11 cells) was 22.6 nM.

For CCOC(=O)Nc1cc(N2C(=O)c3c(C4CC4)nn(C)c3C2c2ccc(Cl)cc2)cn2c(C)nnc12 (stereo not shown) [Example 29, ethyl (6-(6-(4-chlorophenyl)-3-cyclopropyl-1-methyl-4-oxopyrrolo[3,4-c]pyrazol-5-(1H,4H,6H)-yl)-3-methyl-[1,2,4]triazolo[4,3-a]pyridin-8-yl)carbamate], the IC50 (BRD3 (His-Brd3(20-477))) was 22 nM, the GI50 (MV-4-11 cells) was 1.13 nM and the “MV-4-11 TGI” value (MV-4-11 cells) was 1.97 nM.
